PubChem BioAssay (NCI)
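96-well plates; 48 h exposure; 5 concentrations. Endpoints by linear interpolation between flanking doses. Not reached: highest tested concentration assigned. TGI: total growth inhibition.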

Assays:
Assay in all cases: NCI anticancer screen, dose series, 48 h
EKVX NSCLC = system: EKVX NSCLC
LOX IMVI melanoma = system: LOX IMVI melanoma
HCC-2998 colon = system: HCC-2998 colon
NCI-H23 lung = system: NCI-H23 lung
HCT-15 colon = system: HCT-15 colon
SK-MEL-5 melanoma = system: SK-MEL-5 melanoma
BT-549 breast = system: BT-549 breast
SW-620 colon = system: SW-620 colon
IGROV1 ovarian = system: IGROV1 ovarian
SK-MEL-2 melanoma = system: SK-MEL-2 melanoma

Compound: Cc1ccc(S(=O)(=O)N2CCN(CCO)CCN(S(=O)(=O)c3ccc(C)cc3)CCN(CCO)CC2)cc1
- TGI (EKVX NSCLC): 39.1 µM
- TGI (LOX IMVI melanoma): 28.4 µM
- TGI (HCC-2998 colon): 29.7 µM
- TGI (NCI-H23 lung): 45.9 µM
- TGI (HCT-15 colon): 37.2 µM
- TGI (SK-MEL-5 melanoma): 27.3 µM
- TGI (BT-549 breast): > 100 µM
- TGI (SW-620 colon): > 100 µM
- TGI (IGROV1 ovarian): > 100 µM
- TGI (SK-MEL-2 melanoma): 35.2 µM

Compound: O=C(NCc1ccccc1)c1c(O)c2ccccc2[nH]c1=O
- TGI (EKVX NSCLC): > 100 µM
- TGI (LOX IMVI melanoma): > 100 µM
- TGI (HCC-2998 colon): > 100 µM
- TGI (NCI-H23 lung): > 100 µM
- TGI (HCT-15 colon): > 100 µM
- TGI (SK-MEL-5 melanoma): > 100 µM
- TGI (BT-549 breast): > 100 µM
- TGI (SW-620 colon): > 100 µM
- TGI (IGROV1 ovarian): > 100 µM

Compound: CC(C)c1nccn1Cc1ccc(Cl)cc1Cl
- TGI (EKVX NSCLC): > 100 µM
- TGI (LOX IMVI melanoma): > 100 µM
- TGI (HCC-2998 colon): 88.6 µM
- TGI (NCI-H23 lung): > 100 µM
- TGI (HCT-15 colon): > 100 µM
- TGI (SK-MEL-5 melanoma): 34.9 µM
- TGI (BT-549 breast): > 100 µM
- TGI (SW-620 colon): > 100 µM
- TGI (IGROV1 ovarian): > 100 µM
- TGI (SK-MEL-2 melanoma): > 100 µM

Compound: COC(=O)C(C(=O)OC)C1CC(=O)c2c(Br)sc(Br)c21 (stereo not given)
- TGI (EKVX NSCLC): 32.4 µM
- TGI (LOX IMVI melanoma): 26.7 µM
- TGI (HCC-2998 colon): 27.4 µM
- TGI (NCI-H23 lung): 25.4 µM
- TGI (HCT-15 colon): 21.6 µM
- TGI (SK-MEL-5 melanoma): 28.3 µM
- TGI (BT-549 breast): 35.7 µM
- TGI (SW-620 colon): 26.4 µM
- TGI (IGROV1 ovarian): 29.3 µM
- TGI (SK-MEL-2 melanoma): 27.4 µM

Compound: O=C(Nc1nc(C23CC4CC(CC(C4)C2)C3)cs1)c1cc2cc([N+](=O)[O-])ccc2oc1=O
- TGI (EKVX NSCLC): > 100 µM
- TGI (LOX IMVI melanoma): > 100 µM
- TGI (HCC-2998 colon): > 100 µM
- TGI (NCI-H23 lung): > 100 µM
- TGI (HCT-15 colon): > 100 µM
- TGI (SK-MEL-5 melanoma): 96.9 µM
- TGI (BT-549 breast): 40.4 µM
- TGI (SW-620 colon): > 100 µM
- TGI (IGROV1 ovarian): > 100 µM

Compound: COc1ccc(C2NC(=O)Nc3c2c(=O)oc2c3ccc3ccccc32)cc1 (stereo not given)
- TGI (EKVX NSCLC): 96.8 µM
- TGI (LOX IMVI melanoma): > 100 µM
- TGI (NCI-H23 lung): > 100 µM
- TGI (HCT-15 colon): > 100 µM
- TGI (SK-MEL-5 melanoma): > 100 µM
- TGI (BT-549 breast): > 100 µM
- TGI (SW-620 colon): > 100 µM
- TGI (IGROV1 ovarian): > 100 µM
- TGI (SK-MEL-2 melanoma): 82.8 µM

Compound: S=C(Nc1ccc2c(c1)Cc1ccccc1-2)Nc1ccc2c(c1)Cc1ccccc1-2
- TGI (EKVX NSCLC): > 100 µM
- TGI (LOX IMVI melanoma): > 100 µM
- TGI (HCC-2998 colon): > 100 µM
- TGI (NCI-H23 lung): > 100 µM
- TGI (HCT-15 colon): > 100 µM
- TGI (SK-MEL-5 melanoma): > 100 µM
- TGI (BT-549 breast): > 100 µM
- TGI (SW-620 colon): > 100 µM
- TGI (IGROV1 ovarian): > 100 µM

Compound: O=c1oc2ccccc2c(O)c1Cc1cccc(Cc2c(O)c3ccccc3oc2=O)c1
- TGI (EKVX NSCLC): > 100 µM
- TGI (LOX IMVI melanoma): > 100 µM
- TGI (HCC-2998 colon): > 100 µM
- TGI (NCI-H23 lung): > 100 µM
- TGI (HCT-15 colon): > 100 µM
- TGI (SK-MEL-5 melanoma): > 100 µM
- TGI (BT-549 breast): > 100 µM
- TGI (SW-620 colon): > 100 µM
- TGI (IGROV1 ovarian): > 100 µM
- TGI (SK-MEL-2 melanoma): > 100 µM

Compound: CSc1ccccc1P(CCP(c1ccccc1SC)c1ccccc1SC)c1ccccc1SC
- TGI (EKVX NSCLC): 97.7 µM
- TGI (LOX IMVI melanoma): > 100 µM
- TGI (HCC-2998 colon): > 100 µM
- TGI (NCI-H23 lung): > 38.1 µM
- TGI (HCT-15 colon): > 100 µM
- TGI (SK-MEL-5 melanoma): > 70.1 µM
- TGI (BT-549 breast): > 100 µM
- TGI (SW-620 colon): > 100 µM
- TGI (IGROV1 ovarian): > 100 µM
- TGI (SK-MEL-2 melanoma): > 97.2 µM

Compound: Cc1nnc(CC#N)n1NC(=O)CC#N
- TGI (EKVX NSCLC): > 100 µM
- TGI (LOX IMVI melanoma): > 100 µM
- TGI (HCC-2998 colon): > 100 µM
- TGI (NCI-H23 lung): > 100 µM
- TGI (HCT-15 colon): > 100 µM
- TGI (SK-MEL-5 melanoma): > 100 µM
- TGI (BT-549 breast): > 100 µM
- TGI (SW-620 colon): > 100 µM
- TGI (IGROV1 ovarian): > 100 µM
- TGI (SK-MEL-2 melanoma): > 100 µM

Compound: CC1(O)C(=O)OC2CC([C@]3(O)CCC4[C@@H]5C[C@H]6O[C@]67[C@@H](O)C=CC(=O)[C@]7(C)C5CC[C@@]43C)C1(C)C2 (stereo not given in full)
- TGI (EKVX NSCLC): > 100 µM
- TGI (LOX IMVI melanoma): 15.7 µM
- TGI (HCC-2998 colon): > 100 µM
- TGI (NCI-H23 lung): 25.1 µM
- TGI (HCT-15 colon): 51.9 µM
- TGI (SK-MEL-5 melanoma): 45.3 µM
- TGI (BT-549 breast): 26.1 µM
- TGI (SW-620 colon): 11.1 µM
- TGI (IGROV1 ovarian): > 31.6 µM
- TGI (SK-MEL-2 melanoma): 28.6 µM

Compound: CSC1NNC2(C(=O)N1)c1ccccc1-c1ccccc12 (stereo not given)
- TGI (EKVX NSCLC): > 10 µM
- TGI (LOX IMVI melanoma): > 10 µM
- TGI (HCC-2998 colon): > 10 µM
- TGI (NCI-H23 lung): > 10 µM
- TGI (HCT-15 colon): > 10 µM
- TGI (SK-MEL-5 melanoma): > 10 µM
- TGI (BT-549 breast): > 10 µM
- TGI (SW-620 colon): > 10 µM
- TGI (IGROV1 ovarian): > 10 µM

Compound: CC1(C)O[C@@H](CP(c2cccc3ccccc23)c2cccc3ccccc23)[C@H](CP(c2cccc3ccccc23)c2cccc3ccccc23)O1
- TGI (EKVX NSCLC): > 100 µM
- TGI (LOX IMVI melanoma): > 100 µM
- TGI (HCC-2998 colon): > 100 µM
- TGI (NCI-H23 lung): > 100 µM
- TGI (HCT-15 colon): > 100 µM
- TGI (SK-MEL-5 melanoma): > 100 µM
- TGI (BT-549 breast): > 100 µM
- TGI (SW-620 colon): > 100 µM
- TGI (IGROV1 ovarian): > 100 µM
- TGI (SK-MEL-2 melanoma): > 100 µM

Compound: Cc1cccc2c1C(=O)[C@@](C)([C@]1(C)Nc3cccc(C)c3C1=O)N2
- TGI (EKVX NSCLC): > 100 µM
- TGI (LOX IMVI melanoma): > 100 µM
- TGI (HCC-2998 colon): > 100 µM
- TGI (NCI-H23 lung): > 100 µM
- TGI (HCT-15 colon): > 100 µM
- TGI (SK-MEL-5 melanoma): > 100 µM
- TGI (BT-549 breast): > 100 µM
- TGI (SW-620 colon): > 100 µM
- TGI (IGROV1 ovarian): > 100 µM
- TGI (SK-MEL-2 melanoma): > 100 µM

Compound: CCCCCCCCC[n+]1cccc(C2C(C(=O)OCC)=C(C)NC(C)=C2C(=O)OCC)c1
- TGI (EKVX NSCLC): 27.8 µM
- TGI (LOX IMVI melanoma): 9.34 µM
- TGI (HCC-2998 colon): 21.1 µM
- TGI (NCI-H23 lung): 17.8 µM
- TGI (HCT-15 colon): 32.7 µM
- TGI (SK-MEL-5 melanoma): 3.8 µM
- TGI (BT-549 breast): 4.51 µM
- TGI (SW-620 colon): 30.5 µM
- TGI (IGROV1 ovarian): 5.47 µM
- TGI (SK-MEL-2 melanoma): 3.29 µM

Compound: Cn1c(=O)c2[nH]c(CCC(=O)O)nc2n(C)c1=O
- TGI (EKVX NSCLC): > 100 µM
- TGI (LOX IMVI melanoma): > 100 µM
- TGI (HCC-2998 colon): > 100 µM
- TGI (NCI-H23 lung): > 100 µM
- TGI (HCT-15 colon): > 100 µM
- TGI (SK-MEL-5 melanoma): > 100 µM
- TGI (BT-549 breast): > 100 µM
- TGI (SW-620 colon): > 100 µM
- TGI (IGROV1 ovarian): > 100 µM
- TGI (SK-MEL-2 melanoma): > 100 µM

Compound: c1ccc2c(c1)c1c3n2-c2cc(on2)C3CCC1 (stereo not given)
- TGI (EKVX NSCLC): > 100 µM
- TGI (LOX IMVI melanoma): > 100 µM
- TGI (HCC-2998 colon): > 100 µM
- TGI (NCI-H23 lung): > 100 µM
- TGI (HCT-15 colon): > 100 µM
- TGI (SK-MEL-5 melanoma): > 100 µM
- TGI (BT-549 breast): > 100 µM
- TGI (SW-620 colon): > 100 µM
- TGI (IGROV1 ovarian): > 100 µM
- TGI (SK-MEL-2 melanoma): > 100 µM

Compound: CC(C)CC(NC(=O)C(COc1ccc([N+](=O)[O-])cc1)Cc1ccccc1)C(=O)Nc1ccccc1 (stereo not given)
- TGI (EKVX NSCLC): 91.4 µM
- TGI (LOX IMVI melanoma): > 100 µM
- TGI (HCC-2998 colon): 80.2 µM
- TGI (NCI-H23 lung): 28.7 µM
- TGI (HCT-15 colon): > 100 µM
- TGI (SK-MEL-5 melanoma): > 100 µM
- TGI (BT-549 breast): 29.7 µM
- TGI (SW-620 colon): > 100 µM
- TGI (IGROV1 ovarian): 31.2 µM
- TGI (SK-MEL-2 melanoma): 74.1 µM

Compound: Nc1ccc(-c2nc3ccccc3s2)cc1
- TGI (EKVX NSCLC): 87.4 µM
- TGI (LOX IMVI melanoma): 33 µM
- TGI (HCC-2998 colon): > 100 µM
- TGI (NCI-H23 lung): 43.1 µM
- TGI (HCT-15 colon): 40.4 µM
- TGI (SK-MEL-5 melanoma): 50.1 µM
- TGI (BT-549 breast): 28.9 µM
- TGI (SW-620 colon): 41.1 µM
- TGI (IGROV1 ovarian): 48.7 µM
- TGI (SK-MEL-2 melanoma): 64.2 µM

Compound: Cc1ccc([N+](=O)[O-])cc1NC(=O)C(=O)C1CCC2=C(Sc3ccccc3N2)C1=O (stereo not given)
- TGI (EKVX NSCLC): > 100 µM
- TGI (LOX IMVI melanoma): > 100 µM
- TGI (HCC-2998 colon): > 100 µM
- TGI (NCI-H23 lung): > 100 µM
- TGI (HCT-15 colon): > 100 µM
- TGI (SK-MEL-5 melanoma): > 100 µM
- TGI (BT-549 breast): > 100 µM
- TGI (SW-620 colon): > 100 µM
- TGI (IGROV1 ovarian): > 100 µM
- TGI (SK-MEL-2 melanoma): > 100 µM

Compound: COc1cc2c(cc1O)CC[C@@H]1C2CC[C@@]2(C)C1CC[C@@H]2O (stereo not given in full)
- TGI (EKVX NSCLC): 44.6 µM
- TGI (LOX IMVI melanoma): > 100 µM
- TGI (HCC-2998 colon): 34.3 µM
- TGI (NCI-H23 lung): 51.7 µM
- TGI (HCT-15 colon): 49 µM
- TGI (SK-MEL-5 melanoma): 36.7 µM
- TGI (BT-549 breast): > 100 µM
- TGI (SW-620 colon): > 100 µM
- TGI (IGROV1 ovarian): > 100 µM
- TGI (SK-MEL-2 melanoma): > 100 µM
